Patent US4915931A, “Tc-99m mononuclide complex compound” (Nihon Medi-Physics Co., Ltd., priority 1988, dated 1990)
Where two headings read alike, the source gives them in different places.

How the values were obtained:
[1] = type: in vivo; settings: mouse
Experimental: The ^99m Tc-PETS solution as obtained in Example 1 was injected into mice through the tail vein in an amount of 0.1 ml/animal. The mice were sacrificed at pre-determined times after the injection. The radioactivities and weights of various organs and blood taken from the sacrificed mice were measured, and the remaining percentages per gram of each organ were determined. The results are shown in Table 1 wherein the relative ratio of each organ to blood was also shown therein.

[2] = 7 minutes from the administration

## Tc-99m-labeled pentane-2,4-dione-bis(N-methylthiosemicarbazone) complex compound [^99m Tc-PETS]
n-octanol / 0.06 M phosphate buffer, pH 7.0, 37° C., 15 min
  octanol/buffer distribution ratio: 191.3
octanol/buffer, pH 7
  lipophilic property compared with ^99m Tc-KTS: much higher than that of ^99m Tc-KTS
[1]; [2]
  distribution ratio brain/blood: 1.67 ratio (unitless)
  distribution ratio heart/blood: 2.16 ratio (unitless)
  distribution ratio pancreas/blood: 2.66 ratio (unitless)
[1]; i.v. tail vein
  distribution to brain, heart and pancreas after administration: rapidly distributed to brain, heart and pancreas
[1]; i.v. tail vein, 0.5 min
  Body distribution, Blood: 4.31 %/g organ
  Body distribution, Brain: 4.68 %/g organ
  Body distribution, Heart: 15.60 %/g organ
  Body distribution, Intestine: 2.60 %/g organ
  Body distribution, Kidney: 15.30 %/g organ
  Body distribution, Liver: 4.83 %/g organ
  Body distribution, Lung: 11.80 %/g organ
  Body distribution, Pancreas: 7.11 %/g organ
  Body distribution, Spleen: 2.20 %/g organ
  Body distribution, Stomach: 1.95 %/g organ
  Brain/blood ratio: 1.09
  Pancreas/blood ratio: 1.60
  heart/blood ratio: 3.52
[1]; i.v. tail vein, 2 min
  Body distribution, Blood: 3.21 %/g organ
  Body distribution, Brain: 4.16 %/g organ
  Body distribution, Heart: 6.31 %/g organ
  Body distribution, Intestine: 3.17 %/g organ
  Body distribution, Kidney: 10.90 %/g organ
  Body distribution, Liver: 11.70 %/g organ
  Body distribution, Lung: 8.18 %/g organ
  Body distribution, Pancreas: 7.32 %/g organ
  Body distribution, Spleen: 3.24 %/g organ
  Body distribution, Stomach: 2.66 %/g organ
  Brain/blood ratio: 1.30
  Pancreas/blood ratio: 2.29
  heart/blood ratio: 2.17
[1]; i.v. tail vein, 5 min
  Body distribution, Blood: 2.34 %/g organ
  Body distribution, Brain: 2.93 %/g organ
  Body distribution, Heart: 4.08 %/g organ
  Body distribution, Intestine: 3.65 %/g organ
  Body distribution, Kidney: 6.20 %/g organ
  Body distribution, Liver: 20.10 %/g organ
  Body distribution, Lung: 3.95 %/g organ
  Body distribution, Pancreas: 4.30 %/g organ
  Body distribution, Spleen: 3.72 %/g organ
  Body distribution, Stomach: 1.97 %/g organ
  Brain/blood ratio: 1.37
  Pancreas/blood ratio: 1.86
  heart/blood ratio: 1.88
[1]; i.v. tail vein, 7 min
  Body distribution, Blood: 1.21 %/g organ
  Body distribution, Brain: 1.85 %/g organ
  Body distribution, Heart: 2.41 %/g organ
  Body distribution, Intestine: 2.96 %/g organ
  Body distribution, Kidney: 5.03 %/g organ
  Body distribution, Liver: 19.10 %/g organ
  Body distribution, Lung: 2.87 %/g organ
  Body distribution, Pancreas: 3.18 %/g organ
  Body distribution, Spleen: 3.06 %/g organ
  Body distribution, Stomach: 1.63 %/g organ
  Brain/blood ratio: 1.67
  Pancreas/blood ratio: 2.66
  heart/blood ratio: 2.16
[1]; i.v. tail vein, 15 min
  Body distribution, Blood: 1.46 %/g organ
  Body distribution, Brain: 0.97 %/g organ
  Body distribution, Heart: 1.76 %/g organ
  Body distribution, Intestine: 4.63 %/g organ
  Body distribution, Kidney: 4.40 %/g organ
  Body distribution, Liver: 21.90 %/g organ
  Body distribution, Lung: 2.56 %/g organ
  Body distribution, Pancreas: 2.19 %/g organ
  Body distribution, Spleen: 1.98 %/g organ
  Body distribution, Stomach: 1.50 %/g organ
  Brain/blood ratio: 0.68
  Pancreas/blood ratio: 1.52
  heart/blood ratio: 1.21
[1]; i.v. tail vein, 30 min
  Body distribution, Blood: 3.27 %/g organ
  Body distribution, Brain: 0.63 %/g organ
  Body distribution, Heart: 2.01 %/g organ
  Body distribution, Intestine: 7.68 %/g organ
  Body distribution, Kidney: 5.06 %/g organ
  Body distribution, Liver: 31.70 %/g organ
  Body distribution, Lung: 3.20 %/g organ
  Body distribution, Pancreas: 2.05 %/g organ
  Body distribution, Spleen: 2.85 %/g organ
  Body distribution, Stomach: 2.31 %/g organ
  Brain/blood ratio: 0.19
  Pancreas/blood ratio: 0.69
  heart/blood ratio: 0.62
